Measured values as given in publication PMC8138767, “Intrinsically disordered substrates dictate SPOP subnuclear localization and ubiquitination activity” (The Journal of Biological Chemistry, 2021).
“Also recorded” adds a separate entry of the source.

Key:
V5-SPOP in HeLa cells = experiment: Immunofluorescence: V5-SPOP localization on coexpression of GFP–Pdx1 variants; type: cell-based; settings: 24 h after transfection; for V5-SPOP localization, high Pdx1 expression: cells expressing GFP–Pdx1 at high levels (high GFP intensity); for V5-SPOP localization, low Pdx1 expression: cells expressing GFP–Pdx1 at low levels; for SPOP relocalization from nuclear speckles by Pdx1 variant: coexpressed with V5-SPOP, three biological replicates
Description: (§1) HeLa cells were cultured under sterile conditions with Dulbecco’s modified Eagle’s medium (DMEM) (Gibco) supplemented with 10% fetal bovine serum and antibiotics/antimycotics (Gibco) (see Table S5 for key reagents and resources). T-REx-293 cells (cat. no. R710-07) were obtained from Invitrogen. Cells were grown on DMEM supplemented with 10% fetal bovine serum (Gibco), GlutaMax (Gibco), and Penicillin-Streptomycin (Gibco) and kept under selection by 5 μg/ml blasticidin. All cells were grown at 37 °C under 5% CO2 and were mycoplasma free at the time the experiments were performed.
(§2) A plasmid encoding full-length human Pdx1 (amino acids 1-283) in pcDNA3.1 with a C-terminal GFP tag was purchased from GenScript. Full-length mouse SPOP (identical to the human sequence) with a V5 epitope tag in pcDNA3 was generated previously ([21]). The coding sequence for full-length mouse SPOP was inserted into pcDNA4/TO/myc (Invitrogen) for the T-REx system. pcDNA3-myc-CUL3 (cat no. 19893) and pcDNA–HA2–ROC1 (Rbx1) (cat no. 19897) were obtained from Addgene. pcDNA3 containing His-ubiquitin was a gift from Wenyi Wei.
For immunofluorescence experiments, 0.5 × 10^6 cells were seeded on borosilicate glass coverslips in 6-well plates. After 24 h, cells were transfected with 400 ng of each plasmid using the Qiagen Effectene transfection reagent according to the manufacturer protocol. 24 h after transfection, the cells were treated with 4% paraformaldehyde in PBS for 30 min at RT. Cells were permeabilized with 0.1% Triton X-100 in PBS (PBST) for 5 min at 21 °C, followed by blocking in 0.5% BSA in PBST for 1 h at 21 °C. Signal from GFP-tagged proteins was observed directly. Cells were stained in primary antibodies diluted in 0.5% BSA in PBST overnight at 4 °C with mouse anti-SC-35 (1:300, ab11826; Abcam) and chicken anti-V5 (1:300, NB600-379; Novus Biologicals). Cells were incubated with secondary antibodies for 2 h at 21 °C. The secondary antibodies used were goat anti-mouse Alexa Fluor 647 (1:250, A-21235; Thermo Fisher) and goat anti-chicken Alexa Fluor 555 (1:250, A-21437; Thermo Fisher). Cells on coverslips were treated with 300 nM 4′,6-diamidino-2-phenylindole (DAPI) for 5 min at 21 °C. Coverslips were mounted on glass slides with ProLong Diamond mounting reagent (Thermo Fisher) and cured before imaging on a Zeiss LSM 880 Upright microscope. All images were analyzed and prepared in Fiji ([53]).
All immunofluorescence data were averaged over three biological replicates. Cells not expressing both Pdx1 and SPOP were excluded from sampling. Raw images were collected in the Zeiss Zen software and then exported for viewing and analysis in Fiji. Nuclei of individual cells were designated manually in Fiji using the DAPI channel as a guide. The cells were binned based on whether SPOP was localized to nuclear speckles (puncta); cells with both diffuse and punctate SPOP signal were binned as “speckled.” The grayscale signal intensity of the green channel (Pdx1–GFP) was averaged over the DAPI-designated nuclear area. Next, the raw GFP intensity data points (one data point per cell analyzed) were plotted to generate a violin plot distribution. The average, minimum, and maximum values are shown by horizontal lines on the plot. Individual data points are also shown for rigor. […] All plotting and statistical tests were performed using in-house python scripts that can be found at https://github.com/idpemery/spop-pdx1.

HeLa cells = experiment: Immunofluorescence: subcellular localization / phase separation of the protein itself; type: cell-based; settings: confocal fluorescence microscopy
Description: as §1, §2
For immunofluorescence experiments, 0.5 × 10^6 cells were seeded on borosilicate glass coverslips in 6-well plates. After 24 h, cells were transfected with 400 ng of each plasmid using the Qiagen Effectene transfection reagent according to the manufacturer protocol. 24 h after transfection, the cells were treated with 4% paraformaldehyde in PBS for 30 min at RT. Cells were permeabilized with 0.1% Triton X-100 in PBS (PBST) for 5 min at 21 °C, followed by blocking in 0.5% BSA in PBST for 1 h at 21 °C. Signal from GFP-tagged proteins was observed directly. […] All images were analyzed and prepared in Fiji ([53]).
All immunofluorescence data were averaged over three biological replicates. […] Next, the raw GFP intensity data points (one data point per cell analyzed) were plotted to generate a violin plot distribution. […]

SPOP = settings: previously described, no reference given; cited from earlier work
Description: SPOP derives its name from the […]. Specifically, SPOP colocalizes with nuclear speckles but has also been reported in other subnuclear compartments ([24], [26]). The nuclear speckles that house SPOP in the absence of high concentrations of substrate are liquid-like in nature ([21]). The SPOP substrate DAXX typically localizes to promyelocytic leukemia bodies ([27]).

Pdx1: full-length human Pdx1 (amino acids 1-283) with a C-terminal GFP tag
V5-SPOP localization, high Pdx1 expression (V5-SPOP in HeLa cells): SPOP is diffuse
V5-SPOP localization, high Pdx1 expression (V5-SPOP in HeLa cells; listed as WT–Pdx1): primarily diffuse V5-SPOP
V5-SPOP localization, low Pdx1 expression (V5-SPOP in HeLa cells): SPOP localizes to nuclear speckles
V5-SPOP localization, low Pdx1 expression (V5-SPOP in HeLa cells; listed as WT–Pdx1): V5-SPOP localizes to nuclear speckles
SPOP relocalization from nuclear speckles by Pdx1 variant (V5-SPOP in HeLa cells): relocalization of SPOP from nuclear speckles
SPOP relocalization from nuclear speckles by Pdx1 variant (V5-SPOP in HeLa cells; listed as GFP–Pdx1–WT): SPOP relocalized from nuclear speckles into the diffuse nucleoplasm
localization / phase separation in cells (HeLa cells): did not undergo observable partitioning to any nuclear body; also recorded: do not form phase-separated compartments in cells
localization / phase separation in cells (HeLa cells; listed as GFP–Pdx1): does not localize to punctate structures in cells; also recorded: localizes to the nucleus (marked by DAPI, blue) and does not perturb the formation of or partition to nuclear speckles
type of ubiquitination previously described (SPOP): primarily monoubiquitination
